Each structure is given as a SMILES string.

The source of these data is ChEMBL document CHEMBL1667805, “Synthesis of new C5-(1-substituted-1,2,3-triazol-4 or 5-yl)-2'-deoxyuridines and their antiviral evaluation” (Eur J Med Chem, 2011).

One data set relates to L1210. In words: cells. The settings on record: Mus musculus, L1210, 48 h.
In another data set the test system is CCRF-CEM. In words: cells. The settings on record: Homo sapiens, 72 h.
The subject of another data set is HeLa. In words: cells. The settings on record: Homo sapiens, 96 h.
Another data set is described as follows: in vitro. The settings on record: human, HEL cells.
Data set [1] relates to Human alphaherpesvirus 1. Description: microbe, parasite or virus in culture. The settings on record: Human alphaherpesvirus 1, KOS, HEL.
For data set [2], the system named is Human alphaherpesvirus 1. In words: microbe, parasite or virus in culture. The settings on record: Human alphaherpesvirus 1, KOS, HEL. This is another data set of the same source.
The test system of another data set is Human alphaherpesvirus 2. In words: microbe, parasite or virus in culture. The settings on record: Human alphaherpesvirus 2, strain G, HEL.
The test system of the next data set is Vaccinia virus. Description: microbe, parasite or virus in culture. The settings on record: Orthopoxvirus vaccinia, HEL.
Data set [3] has as its system Human betaherpesvirus 5. In words: microbe, parasite or virus in culture. The settings on record: Human betaherpesvirus 5, Davis, HEL.
The subject of data set [4] is Human betaherpesvirus 5. In words: microbe, parasite or virus in culture. The settings on record: Human betaherpesvirus 5, AD169, HEL.
The test system of another data set is Human alphaherpesvirus 3. Description: microbe, parasite or virus in culture. The settings on record: Human alphaherpesvirus 3, 07-1, HEL.

Consider `O=c1[nH]c(=O)n([C@H]2C[C@H](O)[C@@H](CO)O2)cc1-c1cnnn1-c1ccc(Br)cc1`, for which the concentration for half-maximal inhibition (IC50) (as a rule, the concentration that gives 50% inhibition) in the data set on L1210 was found to be 61 µM; with CCRF-CEM it was 47 µM; with HeLa it was 8 µM. In the data set “in vitro”, this compound returned an MCC at 72 h above 100 µM. The EC50 with Human alphaherpesvirus 1 [1], in the data set with Human alphaherpesvirus 1 [2], in the data set with Human alphaherpesvirus 2 and with Vaccinia virus was above 100 µM throughout.

On to `CC(C)c1ccc(-n2nncc2-c2cn([C@H]3C[C@H](O)[C@@H](CO)O3)c(=O)[nH]c2=O)cc1`, for which the IC50 with L1210, in the data set with CCRF-CEM and in the data set with HeLa was above 200 µM throughout. In addition, in “in vitro”, the MCC at 72 h is above 100 µM. Moreover, the EC50 in the data set with Human alphaherpesvirus 1 [1], in the data set on Human alphaherpesvirus 1 [2], in the data set on Human alphaherpesvirus 2 and with Vaccinia virus was above 100 µM each time.

Turning to `Nc1ccn(C[C@@H](CO)OCP(=O)(O)O)c(=O)n1` [CIDOFOVIR], in the data set “in vitro”, the CC50 – broadly, the concentration at which the toxic effect on the cells reaches its halfway point – at 72 h was above 250 µM. This compound also had an MCC at 72 h in the data set “in vitro” above 250 µM. For the same compound, the EC50 – broadly, the concentration at which the effect is half-maximal – was determined as 0.8 µM in the data set on Human alphaherpesvirus 1 [1], 0.8 µM with Human alphaherpesvirus 1 [2], 1.4 µM in the data set with Human alphaherpesvirus 2 and 0.4 µM in the data set with Human betaherpesvirus 5 [3].

In the case of `O=c1[nH]c(=O)n([C@H]2C[C@H](O)[C@@H](CO)O2)cc1-c1cnnn1-c1ccc(Oc2ccccc2)cc1`, the IC50 with L1210 stood at 134 µM; in the data set with CCRF-CEM, 107 µM; in the data set on HeLa it was 42 µM. Moreover, the MCC at 72 h in the data set “in vitro” was above 100 µM. In addition, the 50% effective concentration (EC50) with Human alphaherpesvirus 1 [1], with Human alphaherpesvirus 1 [2], with Human alphaherpesvirus 2 and in the data set on Vaccinia virus was above 100 µM each time.

In the case of `O=c1[nH]c(=O)n([C@H]2C[C@H](O)[C@@H](CO)O2)cc1-c1cnnn1-c1c(F)cccc1F`, the IC50 with L1210 was 10 µM; in the data set on CCRF-CEM, 12 µM; in the data set on HeLa, 5 µM. The compound further yielded an MCC at 72 h in the data set “in vitro” above 100 µM. Also, the EC50 in the data set with Human alphaherpesvirus 1 [1], in the data set on Human alphaherpesvirus 1 [2], with Human alphaherpesvirus 2 and in the data set on Vaccinia virus was above 100 µM each time.

As to `NC(=O)c1ncn([C@@H]2O[C@H](CO)[C@@H](O)[C@H]2O)n1` [RIBAVIRIN], the CC50 at 72 h in the data set “in vitro” is above 250 µM. Moreover, in the data set “in vitro”, the MCC at 72 h was above 250 µM. The concentration giving a half-maximal response (EC50) is above 250 µM in the data set on Human alphaherpesvirus 1 [1]; above 250 µM in the data set on Human alphaherpesvirus 1 [2]; above 250 µM with Human alphaherpesvirus 2; above 100 µM in the data set with Human betaherpesvirus 5 [4]; above 100 µM in the data set on Human betaherpesvirus 5 [3]; above 250 µM with Vaccinia virus.

Take `Nc1nc2c(ncn2COC(CO)CO)c(=O)[nH]1` [GANCICLOVIR]: in the data set “in vitro”, the CC50 at 72 h was above 250 µM. In “in vitro”, this compound yielded an MCC at 72 h above 250 µM. The values for the EC50 in the data set with Human alphaherpesvirus 1 [2], in the data set with Human alphaherpesvirus 2 and with Vaccinia virus were 0.1 µM, 0.04 µM and above 100 µM, respectively.

Take `Nc1nc2c(ncn2COCCO)c(=O)[nH]1` [ACYCLOVIR]: the CC50 at 72 h in the data set “in vitro” was above 130 µM. In addition, the MCC at 72 h in “in vitro” is above 50 µM. Further, the 50% effective concentration (EC50) in the data set with Human alphaherpesvirus 1 [2] is 10 µM; in the data set with Human alphaherpesvirus 3, 16.5 µM; with Vaccinia virus, above 250 µM.

`O=c1[nH]c(=O)n([C@H]2C[C@H](O)[C@@H](CO)O2)cc1/C=C/Br` [BRIVUDINE] had a CC50 at 72 h in the data set “in vitro” above 250 µM. The MCC at 72 h in “in vitro” is above 250 µM. Besides, the EC50 in the data set with Human alphaherpesvirus 1 [2] stood at 6 µM; with Human alphaherpesvirus 2, 180 µM; in the data set with Human alphaherpesvirus 3, 54.4 µM.

`O=c1[nH]cc(F)c(=O)[nH]1` [FLUOROURACIL]: the IC50 with L1210 amounted to 0.56 µM; in the data set on CCRF-CEM, 14 µM; in the data set on HeLa, 0.57 µM.
